Data on one compound can be found in patent US20250127906A1, “SMALL-MOLECULE DEGRADERS OF CDK8 AND CDK19” (University of South Carolina, priority 2021, published 2025).

Assay [1] concerns the target T1, CDK8 (Canis lupus familiaris, UniProt A0A8I3PYQ8).
T1 construct: endogenous in cells; host or cells: Abrams (canine osteosarcoma)
T1 sequence (A0A8I3PYQ8 1-464): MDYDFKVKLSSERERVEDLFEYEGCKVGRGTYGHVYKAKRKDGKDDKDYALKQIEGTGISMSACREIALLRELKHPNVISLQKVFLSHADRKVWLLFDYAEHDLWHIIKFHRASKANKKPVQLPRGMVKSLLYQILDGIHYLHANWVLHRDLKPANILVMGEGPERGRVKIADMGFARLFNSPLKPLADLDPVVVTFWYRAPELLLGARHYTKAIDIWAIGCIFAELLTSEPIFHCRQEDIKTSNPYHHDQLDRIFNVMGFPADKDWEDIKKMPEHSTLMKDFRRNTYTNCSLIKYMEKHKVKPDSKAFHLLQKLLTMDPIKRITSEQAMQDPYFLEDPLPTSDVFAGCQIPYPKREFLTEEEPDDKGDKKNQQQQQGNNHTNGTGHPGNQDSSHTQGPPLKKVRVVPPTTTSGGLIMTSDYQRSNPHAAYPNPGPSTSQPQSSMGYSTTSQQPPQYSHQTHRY
Briefly: CDK8 degradation in canine Abrams osteosarcoma cells. The class given is cell-based. An excerpt: Both the extent and the kinetics of CDK8 degradation were similar between two cell lines, with the degradation reaching maximum at about 8 hrs of PROTAC treatment.

The target of assay [2] is T2, CDK19 (Homo sapiens, UniProt Q9BWU1). Briefly: CDK19 degradation in other human cell lines (22Rv1, MV4-11, HAP-1, HTB-185, SAOS2, SJSA-1). The assay is classed as cell-based. Also on record: endogenous in cells. Particulars: 24-hr treatment. An excerpt:
FIG. 5 illustrates the effects of the novel PROTACs HP8580, IA7843 and IA7886 on CDK8 and CDK19 degradation in other human cell lines, including 22Rv1 prostate cancer (expressing more CDK19 than CDK8), MV4-11 (AML) and HAP-1 (CML) leukemia cell lines, HTB-185 medulloblastoma, and SAOS2 and SJSA-1 osteosarcoma (the latter expressing only CDK19 but not CDK8).

For assay [3], the target named is CDK8 (Homo sapiens, UniProt P49336). Briefly: CDK8 degradation in RPMI 8226 cells (Western blot). The assay is classed as cell-based. More on the design: host or cells: RPMI 8226. Particulars: RPMI 8226, concentrations used in FIG. 14A. In general terms: A western blot detects proteins with antibodies after separation by electrophoresis.
The test system of assay [4] is Jurkat cells. Briefly: Long-term growth of Jurkat cells under continuous treatment. The assay is classed as cell-based, human. Particulars: 300 nM continuous. The protocol:
The anti-proliferative effects of a PROTAC and a kinase inhibitor were compared in leukemia cell lines. In the long-term treatment experiment shown in FIG. 11A, Jurkat cells (0.1 million cells) were continuously treated with vehicle control (0.1% DMSO), 300 nM BI-1347 or 300 nM IA7886 for 53 days (each condition in biological triplicates). Every 7-8 days, live cells were counted using BioRAD TC20 Automated Cell Counter with trypan blue staining: 0.1 million live cells were passaged to a new T25 flask to propagate under the same treatment conditions. The survival fraction was calculated by dividing the accumulated number of drug-treated cells with the accumulated number of vehicle-treated cells. […] This sustained inhibition property of PROTAC was also observed in MV4-11, a leukemia cell line highly sensitive to CDK8/19 kinase inhibitors.

Assay [5] addresses T2, CDK19. As to the kind of experiment: CDK19 degradation in HEK-293 cells (Western blot). The class given is cell-based. Also on record: PROTACs on CDK8 and CDK19 degradation in HEK-293cells; endogenous in cells; host or cells: HEK-293. As to conditions: concentration degrading CDK19 to half of level in untreated cells. An excerpt: Furthermore, the degradation of both CDK8 and CDK19 by the PROTACs is also seen to decrease the levels of their binding partner cyclin C (CCNC) (FIG. 2B, D, E), which is known to be protected from proteolytic degradation by its interaction with CDK8 (Barette et al., 2001).
FIGS. 2F and 2G show the effects of different concentrations of potent Senexin C- and BI-1347-based PROTACs on CDK8 and CDK19 degradation in HEK-293cells. Based on these assays, we calculated DC50 values that correspond to PROTAC concentrations inducing degradation of CDK8 and CDK19 to the half of protein level in untreated cells. The corresponding CDK8 DC50 values were 46 nM for IA7843, 6.6 nM for IA7882 and 2.8 nM for IA7886, and CDK19 DC50 values were 1 μM for IA7843, 25 nM for IA7882 and 10 nM for IA7886.

The subject of assay [6] is pS727 STAT1 and total STAT1. Briefly: pS727 STAT1 and total STAT1 in CT26 tumors in Balb/c mice. The class given is in vivo. As to conditions: oral gavage 20 mg/kg, 2, 8 or 24 hrs after dosing. How it is done:
CT26 cells were injected subcutaneously into syngeneic Balb/c female mice and allowed to grow to 150˜200 mm^3. Tumor-bearing mice then received PROTACs IA7882 or IA7886 by oral gavage at 20 mg/kg in 30% propylene glycol/70% PEG-400 vehicle. Tumors were collected 2, 8 or 24 hrs after dosing and used to measure protein levels of CDK8, pS727 STAT1 and total STAT1 (by western blotting) and mRNA expression of CCL12, a gene that is inhibited by different CDK8/19 inhibitors in CT26 tumors in vivo (by QPCR).

T2 sequence (Q9BWU1 whole entry): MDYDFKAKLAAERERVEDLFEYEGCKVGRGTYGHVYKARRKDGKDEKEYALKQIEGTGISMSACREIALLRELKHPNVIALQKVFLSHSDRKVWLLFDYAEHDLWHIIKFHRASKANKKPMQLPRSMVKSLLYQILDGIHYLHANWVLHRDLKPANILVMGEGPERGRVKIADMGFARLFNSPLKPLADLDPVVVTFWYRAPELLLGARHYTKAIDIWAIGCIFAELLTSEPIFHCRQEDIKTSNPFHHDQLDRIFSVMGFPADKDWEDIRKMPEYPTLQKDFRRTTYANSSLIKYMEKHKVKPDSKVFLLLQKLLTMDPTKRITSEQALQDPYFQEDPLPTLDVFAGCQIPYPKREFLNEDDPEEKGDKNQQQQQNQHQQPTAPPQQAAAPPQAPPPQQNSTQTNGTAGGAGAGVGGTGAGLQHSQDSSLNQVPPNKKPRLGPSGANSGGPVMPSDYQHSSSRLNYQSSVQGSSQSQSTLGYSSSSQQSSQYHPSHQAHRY
T2 sequence (P24863 whole entry partner): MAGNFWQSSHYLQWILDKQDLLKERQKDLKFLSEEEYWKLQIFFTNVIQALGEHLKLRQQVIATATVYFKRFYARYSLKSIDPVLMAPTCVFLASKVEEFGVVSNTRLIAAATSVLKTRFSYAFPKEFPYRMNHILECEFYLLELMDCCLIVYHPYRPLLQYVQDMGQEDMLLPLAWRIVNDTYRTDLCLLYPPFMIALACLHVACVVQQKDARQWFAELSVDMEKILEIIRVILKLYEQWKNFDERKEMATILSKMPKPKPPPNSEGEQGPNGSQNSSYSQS
Chain of CDK8 (Homo sapiens, UniProt P49336) (P49336 whole entry): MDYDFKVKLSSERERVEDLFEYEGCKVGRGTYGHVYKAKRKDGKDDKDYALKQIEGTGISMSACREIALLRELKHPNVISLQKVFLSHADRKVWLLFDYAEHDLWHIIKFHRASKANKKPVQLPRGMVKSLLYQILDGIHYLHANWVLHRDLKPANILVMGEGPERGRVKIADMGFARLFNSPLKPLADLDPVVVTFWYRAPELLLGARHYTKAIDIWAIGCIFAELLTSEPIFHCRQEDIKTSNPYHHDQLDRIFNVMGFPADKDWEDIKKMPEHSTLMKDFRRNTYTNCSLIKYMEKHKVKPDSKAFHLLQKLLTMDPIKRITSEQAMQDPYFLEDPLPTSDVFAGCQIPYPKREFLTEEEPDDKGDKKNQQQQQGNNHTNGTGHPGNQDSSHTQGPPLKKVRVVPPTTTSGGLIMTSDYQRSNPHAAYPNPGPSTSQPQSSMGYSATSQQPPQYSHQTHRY
Chain of CDK8 (Homo sapiens, UniProt P49336) (P24863 whole entry partner): as the sequence (P24863 whole entry partner) above

With `O=C(CCCNc1cccc2c1C(=O)N(C1CCC(=O)NC1=O)C2=O)NCCCCCCCCCCC(=O)N1CCN(C(=O)Cn2cc(-c3ccc(-c4cncc5ccccc45)cc3)cn2)CC1` (stereo not shown) [IA7886, 4-[[2-(2,6-dioxo-3-piperidyl)-1,3-dioxo-isoindolin-4-yl]amino]-N-[11-[4-[2-[4-[4-(4-isoquinolyl)phenyl]pyrazol-1-yl]acetyl]piperazin-1-yl]-11-oxo-undecyl]butanamide], the results for the “CDK8 degradation (in words)” value in assay [1] and in assay [3] were “induce CDK8 degradation in both cell lines” and “efficiently degraded CDK8 in RPMI 8226 cells”, respectively. The “CDK19 degradation (in words)” value in assay [2] was “significantly degraded CDK8 and CDK19 in all the tested cell lines”. For the same compound, in assay [4], the “growth inhibition, first two passages (14 days)” value is reported as “had a stronger growth inhibition effect than the PROTAC IA7886”. The “growth rates in later passages” value in assay [4] (up to 53 days) is recorded as “growth rates of IA-7886 treated cells were decreasing”. In addition, the 50% degradation concentration (DC50) in assay [5] is 10 nM. Besides, the “pS727 STAT1 and total STAT1 in tumors” value in assay [6] is “decreased in most of the tumors collected 2 hrs or 8 hrs after dosing”.

As a reminder, the DC50 is the concentration at which degradation of the target reaches its halfway point. Read a high DC50 as degradation only at high concentration.
